{"source": "paper PMC11129975", "about": "“A first-in-human phase I study of TAS-117, an allosteric AKT inhibitor, in patients with advanced solid tumors” (Cancer Chemotherapy and Pharmacology, 2024)", "origin": "cited, not measured here", "test_system": "NCI-N87", "details": "oral dosing; NCI-N87 (HER2 amplification); cited from earlier work", "data": [{"smiles": "C[C@]1(O)C[C@@](N)(c2ccc(-c3nc4n(c3-c3ccccc3)COc3ccncc3-4)cc2)C1", "note": "[TAS-117]", "values": [{"measurement": "Antitumor activity", "value": "demonstrated single-agent antitumor activity"}]}]}
